# Where “and” joins values, the source holds several entries; their conditions need not be identical. Identical values can stand only once. Like-named read-outs stand apart in the source and are kept apart here.
# Key:
# Assay in all cases: Chymotrypsin coupled prolyl-isomerase assay
# CypD = CypD (Homo sapiens, UniProt P30405); conditions: for CypD prolyl-isomerase assay raw dose-response value: Fig. 3b source data, replicates
# CypA = molecular target: T1, CypA (Homo sapiens, UniProt P62937); assay type: biochemical; conditions: for CypA prolyl-isomerase assay raw dose-response value: Fig. 3b source data, replicates
# T1 construct: PPIA (UniProtKB Entry P62937: residues 1–165); made in house; host or cells: E. coli BL21(DE3)
# Outline: (§1)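 Steps: cyclophilin plus compound 5 min at 2–3 °C; α-chymotrypsin added, 5 min more; Suc-AAPF-AMC substrate in LiCl/trifluoroethanol injected and fluorescence followed 330 s. Finals: 5 nM enzyme, 25 µM chymotrypsin, 5 µM substrate, 0.25% DMSO.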
# CypG = molecular target: T2, CypG (Homo sapiens, UniProt Q13427); assay type: biochemical; conditions: for CypG prolyl-isomerase assay raw dose-response value: Fig. 3b source data, replicates
# T2 construct: PPIG (UniProtKB Entry Q13427: residues 1–179); His6 with thrombin site (pET28a LIC leader) (N); host or cells: E. coli BL21(DE3)
# T2 sequence (Q13427 1-179): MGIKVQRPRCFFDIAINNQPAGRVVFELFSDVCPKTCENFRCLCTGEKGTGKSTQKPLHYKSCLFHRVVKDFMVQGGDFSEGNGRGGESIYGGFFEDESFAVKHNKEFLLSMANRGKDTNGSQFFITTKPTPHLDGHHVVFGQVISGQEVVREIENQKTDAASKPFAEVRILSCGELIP
# Outline: as §1
# CypH = molecular target: T3, CypH (Homo sapiens, UniProt O43447); assay type: biochemical; conditions: for CypH prolyl-isomerase assay raw dose-response value: Fig. 3b source data, replicates
# T3 construct: PPIH (UniProtKB Entry O43447: residues 1–177); His6 with TEV site (2BT vector leader) (N); made in house; host or cells: E. coli BL21(DE3)
# Outline: as §1
# PPIL1 = molecular target: T4, PPIL1 (Homo sapiens, UniProt Q9Y3C6); assay type: biochemical; conditions: for PPIL1 prolyl-isomerase assay raw dose-response value: Fig. 3b source data, replicates; for IC50: wild-type PPIL1, read-out: Wild-Type Cyclophilin Prolyl Isomerase Inhibition IC50 Values, PPIL1
# T4 construct: PPIL1 (UniProtKB Entry Q9Y3C6: residues 1–166); made in house; host or cells: E. coli BL21(DE3)
# T4 sequence (Q9Y3C6 1-166): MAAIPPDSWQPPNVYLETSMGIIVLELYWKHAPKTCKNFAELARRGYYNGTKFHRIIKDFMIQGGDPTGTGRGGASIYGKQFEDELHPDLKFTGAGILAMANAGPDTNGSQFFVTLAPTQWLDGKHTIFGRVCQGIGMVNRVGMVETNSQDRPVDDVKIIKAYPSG
# Method: Adapting a previously described protocol[51], with an Agilent Bravo Velocity 11 with a 384ST head, 90 µL assay buffer (25 mM HEPES pH 7.3, 100 mM NaCl, 0.01% Triton X-100) containing 5.28 nM cyclophilin was added into a flat, clear-bottom, black 384-well plate pre-chilled in a Corning CoolBox at 2–3 °C. Five microliters of compound pre-dissolved in 5% DMSO/assay buffer was then added to appropriate wells and incubated at 2–3 °C for 5 min. Five microliters of 0.5 mM α-chymotrypsin from bovine pancreas (Type II, lyophilized powder, Millipore-Sigma) in 20% 1 mM HCl/Assay Buffer was then added to each well and incubated at 2–3 °C for 5 min. […] Using the internal liquid handling system of the FLIPR, 1 µL 0.5 mM Suc-AAPF-AMC (Chymotrypsin Substrate II, Millipore-Sigma) dissolved in 0.55 M LiCl/2,2,2-trifluoroethanol was added to each well, which was then mixed for 5 s, followed by immediate fluorescence measurements every 1 s for 330 s using a 360–380 nm excitation LED module and a 400–460 nm emission filter. Final concentrations of the plate include 5 nM cyclophilin, 0.25% DMSO, 25 µM α-chymotrypsin, 5 µM Suc-AAPF-AMC. Raw fluorescence data was analyzed by non-linear regression analysis with Prism v.9 by fitting one-phase association curves to each well. Analyses were halted after the calculated maximum fluorescent value owing to observed fluorescent bleaching during the sustained fluorescent plateau. Rate constants calculated for each well (s^−1) were then normalized to substrate only (no prolyl-isomerase) and enzyme + substrate only controls. IC50 values were calculated as the value at which 50% inhibition was achieved on the non-linear regression fitted curve of each compound.
# PPWD1 = molecular target: T5, PPWD1 (Homo sapiens, UniProt Q96BP3); assay type: biochemical; conditions: for PPWD1 prolyl-isomerase assay raw dose-response value: Fig. 3b source data, replicates
# T5 construct: PPWD1 (UniProtKB Entry Q96BP3: residues 473–646); host or cells: E. coli BL21(DE3)
# T5 sequence (Q96BP3 473-646): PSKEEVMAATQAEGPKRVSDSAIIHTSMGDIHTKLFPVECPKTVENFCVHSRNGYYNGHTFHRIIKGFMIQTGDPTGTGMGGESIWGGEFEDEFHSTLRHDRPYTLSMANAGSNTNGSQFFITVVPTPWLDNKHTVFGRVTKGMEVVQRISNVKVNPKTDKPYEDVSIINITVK
# [1] = wild-type CypA, read-out: Wild-Type Cyclophilin Prolyl Isomerase Inhibition IC50 Values, CypA
# [2] = prolyl-isomerase inhibition, 5 nM cyclophilin, read-out: IC50 CypG
# [3] = wild-type CypG, read-out: Wild-Type Cyclophilin Prolyl Isomerase Inhibition IC50 Values, CypG
# [4] = prolyl-isomerase inhibition, 5 nM cyclophilin, read-out: IC50 CypH
# [5] = wild-type CypH, read-out: Wild-Type Cyclophilin Prolyl Isomerase Inhibition IC50 Values, CypH
# [6] = wild-type PPWD1, read-out: Wild-Type Cyclophilin Prolyl Isomerase Inhibition IC50 Values, PPWD1
# T3 sequence (O43447 whole entry, the tested form may be a part): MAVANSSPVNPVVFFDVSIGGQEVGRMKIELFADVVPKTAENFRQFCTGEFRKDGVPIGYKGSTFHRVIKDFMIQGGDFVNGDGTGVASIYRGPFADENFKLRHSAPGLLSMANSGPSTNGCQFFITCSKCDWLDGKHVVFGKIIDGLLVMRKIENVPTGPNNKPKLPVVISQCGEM
# T1 sequence (P62937 whole entry, the tested form may be a part): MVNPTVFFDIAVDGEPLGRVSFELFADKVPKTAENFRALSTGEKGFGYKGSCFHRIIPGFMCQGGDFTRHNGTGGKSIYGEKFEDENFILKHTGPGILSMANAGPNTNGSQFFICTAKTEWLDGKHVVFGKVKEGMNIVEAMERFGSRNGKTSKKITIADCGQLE
# CypD, sequence (P30405 45-207): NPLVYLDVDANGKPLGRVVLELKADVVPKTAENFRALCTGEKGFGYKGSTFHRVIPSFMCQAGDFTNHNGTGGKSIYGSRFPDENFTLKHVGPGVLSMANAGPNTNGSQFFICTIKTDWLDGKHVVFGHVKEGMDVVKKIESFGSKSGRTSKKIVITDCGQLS
compound,measurement,setting,value
NCCOCCNC(=O)[C@@H]1CCNC(=O)/C=C/C(=O)N2CCC[C@](Cc3ccccc3)(C2)C(=O)N[C@@H](Cc2ccc(-c3ccc(C#CC(=O)O)cc3)cc2)C(=O)NCc2ccccc2CC(=O)N1 [Compound B25],IC50,CypD,0.003 µM
same,CypD prolyl-isomerase assay raw dose-response value,CypD; Dose 0.000457247 µM,0.0674 and 0.06729 and 0.07005
same,CypD prolyl-isomerase assay raw dose-response value,CypD; Dose 0.00137174 µM,0.06909 and 0.05826 and 0.0465
same,CypD prolyl-isomerase assay raw dose-response value,CypD; Dose 0.00411523 µM,0.04183 and 0.04697 and 0.03133
same,CypD prolyl-isomerase assay raw dose-response value,CypD; Dose 0.0123457 µM,0.02432 and 0.02391 and 0.02276
same,CypD prolyl-isomerase assay raw dose-response value,CypD; Dose 0.037037 µM,0.01562 and 0.01516 and 0.01481
same,CypD prolyl-isomerase assay raw dose-response value,CypD; Dose 0.111111 µM,0.01259 and 0.0133 and 0.01227
same,CypD prolyl-isomerase assay raw dose-response value,CypD; Dose 0.333333 µM,0.01238 and 0.01154 and 0.0111
same,CypD prolyl-isomerase assay raw dose-response value,CypD; Dose 1 µM,0.01437 and 0.01145 and 0.01083
same,IC50,"CypA; CypA column within the mutant section (comparator for CypA E81S/K82R), read-out: Mutant Cyclophilin Prolyl Isomerase Inhibition IC50 Values, CypA",0.037 µM
same,CypA prolyl-isomerase assay raw dose-response value,CypA; Dose 0.00457247 µM,0.1146 and 0.097 and 0.1434
same,CypA prolyl-isomerase assay raw dose-response value,CypA; Dose 0.0137174 µM,0.07936 and 0.08714 and 0.118
same,CypA prolyl-isomerase assay raw dose-response value,CypA; Dose 0.0411523 µM,0.05569 and 0.06344 and 0.07261
same,CypA prolyl-isomerase assay raw dose-response value,CypA; Dose 0.123457 µM,0.03132 and 0.03338 and 0.03777
same,CypA prolyl-isomerase assay raw dose-response value,CypA; Dose 0.37037 µM,0.02003 and 0.0199 and 0.02096
same,CypA prolyl-isomerase assay raw dose-response value,CypA; Dose 1.11111 µM,0.015 and 0.01431 and 0.01411
same,CypA prolyl-isomerase assay raw dose-response value,CypA; Dose 3.33333 µM,0.01402 and 0.01221 and 0.01255
same,CypA prolyl-isomerase assay raw dose-response value,CypA; Dose 10 µM,0.01563 and 0.01147 and 0.01176
same,IC50,"CypA; prolyl-isomerase inhibition, 5 nM cyclophilin, read-out: IC50 CypA",0.037 ± 0.007 µM
same,IC50,CypA; [1],0.037 µM
same,CypG prolyl-isomerase assay raw dose-response value,CypG; Dose 0.0228624 µM,0.06249 and 0.05548 and 0.0638
same,CypG prolyl-isomerase assay raw dose-response value,CypG; Dose 0.0685871 µM,0.05565 and 0.04551* and 0.05901
same,CypG prolyl-isomerase assay raw dose-response value,CypG; Dose 0.205761 µM,0.04568 and 0.0619
same,CypG prolyl-isomerase assay raw dose-response value,CypG; Dose 0.617284 µM,0.03977 and 0.04815 and 0.06466
same,CypG prolyl-isomerase assay raw dose-response value,CypG; Dose 1.85185 µM,0.05698 and 0.05304 and 0.05804
same,CypG prolyl-isomerase assay raw dose-response value,CypG; Dose 5.55556 µM,0.0448 and 0.05687 and 0.05139
same,CypG prolyl-isomerase assay raw dose-response value,CypG; Dose 16.6667 µM,0.04193 and 0.04196 and 0.0448
same,CypG prolyl-isomerase assay raw dose-response value,CypG; Dose 50 µM,0.03044 and 0.02213 and 0.02754
same,IC50,CypG; [2],~25 µM
same,IC50,CypG; [3],25 µM
same,CypH prolyl-isomerase assay raw dose-response value,CypH; Dose 0.0228624 µM,0.04387 and 0.03667 and 0.04369
same,CypH prolyl-isomerase assay raw dose-response value,CypH; Dose 0.0685871 µM,0.04493 and 0.03523 and 0.04571
same,CypH prolyl-isomerase assay raw dose-response value,CypH; Dose 0.205761 µM,0.04732 and 0.03749
same,CypH prolyl-isomerase assay raw dose-response value,CypH; Dose 0.617284 µM,0.04296 and 0.03867 and 0.04263
same,CypH prolyl-isomerase assay raw dose-response value,CypH; Dose 1.85185 µM,0.0451 and 0.03462 and 0.04053
same,CypH prolyl-isomerase assay raw dose-response value,CypH; Dose 5.55556 µM,0.04418 and 0.03887 and 0.03972
same,CypH prolyl-isomerase assay raw dose-response value,CypH; Dose 16.6667 µM,0.03817 and 0.03665 and 0.03617
same,CypH prolyl-isomerase assay raw dose-response value,CypH; Dose 50 µM,0.02975 and 0.02514 and 0.02678
same,IC50,CypH; [4],~50 µM
same,IC50,CypH; [5],50 µM
same,PPIL1 prolyl-isomerase assay raw dose-response value,PPIL1; Dose 0.0228624 µM,0.0374 and 0.04134 and 0.04686
same,PPIL1 prolyl-isomerase assay raw dose-response value,PPIL1; Dose 0.0685871 µM,0.02743 and 0.02671 and 0.02724
same,PPIL1 prolyl-isomerase assay raw dose-response value,PPIL1; Dose 0.205761 µM,0.01848 and 0.01869
same,PPIL1 prolyl-isomerase assay raw dose-response value,PPIL1; Dose 0.617284 µM,0.01432 and 0.01378 and 0.01288
same,PPIL1 prolyl-isomerase assay raw dose-response value,PPIL1; Dose 1.85185 µM,0.01263 and 0.01274 and 0.01211
same,PPIL1 prolyl-isomerase assay raw dose-response value,PPIL1; Dose 5.55556 µM,0.01183 and 0.01164 and 0.01059
same,PPIL1 prolyl-isomerase assay raw dose-response value,PPIL1; Dose 16.6667 µM,0.01229 and 0.01158 and 0.01139
same,PPIL1 prolyl-isomerase assay raw dose-response value,PPIL1; Dose 50 µM,0.01421 and 0.01181 and 0.01108
same,IC50,PPIL1,0.02 µM
same,PPWD1 prolyl-isomerase assay raw dose-response value,PPWD1; Dose 0.0228624 µM,0.03895 and 0.0361 and 0.043
same,PPWD1 prolyl-isomerase assay raw dose-response value,PPWD1; Dose 0.0685871 µM,0.04294 and 0.03257 and 0.04643
same,PPWD1 prolyl-isomerase assay raw dose-response value,PPWD1; Dose 0.205761 µM,0.03704 and 0.0362
same,PPWD1 prolyl-isomerase assay raw dose-response value,PPWD1; Dose 0.617284 µM,0.03731 (2×) and 0.0336
same,PPWD1 prolyl-isomerase assay raw dose-response value,PPWD1; Dose 1.85185 µM,0.03718 and 0.0343 and 0.0411
same,PPWD1 prolyl-isomerase assay raw dose-response value,PPWD1; Dose 5.55556 µM,0.03268 and 0.0311 and 0.02851
same,PPWD1 prolyl-isomerase assay raw dose-response value,PPWD1; Dose 16.6667 µM,0.02501 and 0.02576 and 0.02254
same,PPWD1 prolyl-isomerase assay raw dose-response value,PPWD1; Dose 50 µM,0.01888 and 0.01599 and 0.01588
same,IC50,"PPWD1; prolyl-isomerase inhibition, 5 nM cyclophilin, read-out: IC50 PPWD1",~10 µM
same,IC50,PPWD1; [6],10 µM
NCCCc1ccc(-c2ccc(C[C@@H]3NC(=O)[C@]4(Cc5ccccc5)CCCN(C4)C(=O)/C=C/C(=O)NCC[C@@H](C(=O)NCCOCCN)NC(=O)Cc4ccccc4CNC3=O)cc2)cc1 [Compound B32],IC50,CypD,6 µM
same,reduction in potency for CypD on replacing the carboxylate with an amine,CypD,"500- to 1,000 fold"
same,IC50,CypA; [1],8 µM
same,IC50,CypG; [3],11 µM
same,IC50,CypH; [5],> 50 µM
same,IC50,PPIL1,2 µM
same,IC50,PPWD1; [6],0.8 µM
C[N+]1=C(C=CC=CC=C2N(CCCCCC(=O)NCCNC(=O)C3CCNC(=O)C=CC(=O)N4CCCC(Cc5ccccc5)(C4)C(=O)NC(Cc4ccc(-c5ccc(CC(C(=O)O)C(=O)O)cc5)cc4)C(=O)NCc4ccccc4CC(=O)N3)c3ccccc3C2(C)C)C(C)(C)c2ccccc21 (centres unmarked) [Compound B52-Cy5],IC50,"CypD; read-out: Wild-Type Cyclophilin Prolyl Isomerase Inhibition IC50 Values, CypD, wild-type CypD",0.007 µM
same,IC50,CypA; [1],0.19 µM
same,IC50,CypG; [2],~10 µM
same,IC50,CypG; [3],10 µM
same,IC50,CypH; [4],~10 µM
same,IC50,CypH; [5],10 µM
same,IC50,PPIL1,4 µM
same,IC50,PPWD1; [6],> 10 µM
